The test relates to NF-κ B activation. Briefly: Inhibitory activity of NF-κB activation, luciferase reporter assay under TNF-α stimulation in HepG2. The settings on record: HepG2, TNF-α 40 ng/ml, 4 hours; for inhibition at 1 µg/mL / inhibition at 10 µg/mL: Homo sapiens, read-out: Inhibitory rate against NF-κB activation (%). In kind it is cell-based, human. The method, then:
Measurement of Inhibitory Activity of NF-κB activation
Using a transfection reagent (Effectene; QIAGEN), the human hepatoma cell strain HepG2 was transfected with a plasmid (pNF κ B-Luc Reporter Plasmid; […]) integrated with an oligonucleotide having five tandem copies of NF-κ B binding sequences([…]) on a upstream region of firefly luciferase gene(Luc) according to the QIAGEN's protocol, and the cells were incubated for 6 to 24 hours. After addition of TNF-α (40 ng/ml) in the presence or absence of a test compound, the cells were incubated for 4 hours, and intracellular luciferase activity was measured by using PicaGene LT (TOYO INK MFG Co., Ltd.) and a chemical luminescence measurement apparatus ([…]luor Plus; TECAN). The inhibitory ratio was measured as a ratio relative to the value of the luciferase activity in the absence of the test compound.

SMILES strings stand for the structures.

In the case of `CC(=O)Oc1ccccc1C(=O)Nc1cc(C(F)(F)F)cc(C(F)(F)F)c1` [compound 1, 2-acetoxy-N-[3,5-bis(trifluoromethyl)phenyl]benzamide], under “Drug concentration at 1 μg/mL”, the inhibition at 1 µg/mL came out at 90.9%. Under “Drug concentration at 10 μg/mL”, the inhibition at 10 µg/mL worked out at 97.1%.
In the case of `O=C(Nc1cc(C(F)(F)F)cc(C(F)(F)F)c1)c1ccccc1O` [compound 2], the “Inhibitory rate against NF-κB activation (%)” value (from here on “Inhibitory rate … (%)”) is 93.3% (Drug concentration at 1 μg/mL) and 95.6% (Drug concentration at 10 μg/mL).
For `O=C(Nc1cc(C(F)(F)F)cc(C(F)(F)F)c1)c1cc(F)ccc1O` [compound 3], the “Inhibitory rate … (%)” value runs as follows: (Drug concentration at 1 μg/mL) 81.5%; (Drug concentration at 10 μg/mL) 94.3%.
Consider `CC(=O)Oc1ccc(Cl)cc1C(=O)Nc1cc(C(F)(F)F)cc(C(F)(F)F)c1` [compound 5], for which the “Inhibitory rate … (%)” value reads like this: (Drug concentration at 1 μg/mL) 96.5%; (Drug concentration at 10 μg/mL) 99.2%.
As to `O=C(Nc1cc(C(F)(F)F)cc(C(F)(F)F)c1)c1cc([N+](=O)[O-])ccc1O` [compound 8, N-[3,5-bis(trifluoromethyl)phenyl]-2-hydroxy-5-nitrobenzamide], the inhibition at 1 µg/mL (Drug concentration at 1 μg/mL) came to 92%. For the same molecule, the inhibition at 10 µg/mL (Drug concentration at 10 μg/mL) came out at 99.2%.
With `N#Cc1ccc(O)c(C(=O)Nc2cc(C(F)(F)F)cc(C(F)(F)F)c2)c1` [compound 9, N-[3,5-Bis(trifluoromethyl)phenyl]-5-cyano-2-hydroxybenzamide], where the note is “Drug concentration at 1 μg/mL”, the inhibition at 1 µg/mL was 92.2%. Moreover, the inhibition at 10 µg/mL (Drug concentration at 10 μg/mL) turned out to be 99.6%.
In the case of `Cc1ccc(O)c(C(=O)Nc2cc(C(F)(F)F)cc(C(F)(F)F)c2)c1` [compound 10], the “Inhibitory rate … (%)” value reads like this: (Drug concentration at 1 μg/mL) 95.8%; (Drug concentration at 10 μg/mL) 99.4%.
As to `CC(C)(C)c1ccc(O)c(C(=O)Nc2cc(C(F)(F)F)cc(C(F)(F)F)c2)c1` [compound 11, N-[3,5-Bis(trifluoromethyl)phenyl]-5-[(1,1-dimethyl)ethyl]-2-hydroxybenzamide], the inhibition at 1 µg/mL (Drug concentration at 1 μg/mL) was 92.9%. Moreover, the inhibition at 10 µg/mL (Drug concentration at 10 μg/mL) amounted to 98.3%.
For `CC(=O)c1ccc(O)c(C(=O)Nc2cc(C(F)(F)F)cc(C(F)(F)F)c2)c1` [compound 12, 5-Acetyl-N-[3,5-bis(trifluoromethyl)phenyl]-2-hydroxybenzamide], the inhibition at 1 µg/mL (Drug concentration at 1 μg/mL) came out at 86.3%. In addition, the inhibition at 10 µg/mL (Drug concentration at 10 μg/mL) was found to be 99.2%.
For `CC(O)c1ccc(O)c(C(=O)Nc2cc(C(F)(F)F)cc(C(F)(F)F)c2)c1` (stereo not drawn) [compound 13], the “Inhibitory rate … (%)” value came to 76.8% (Drug concentration at 1 μg/mL) and 96.0% (Drug concentration at 10 μg/mL).
With `CON=C(C)c1ccc(O)c(C(=O)Nc2cc(C(F)(F)F)cc(C(F)(F)F)c2)c1` [compound 14], the “Inhibitory rate … (%)” value reads like this: (Drug concentration at 1 μg/mL) 94.7%; (Drug concentration at 10 μg/mL) 98.3%.
In the case of `CC(=NOCc1ccccc1)c1ccc(O)c(C(=O)Nc2cc(C(F)(F)F)cc(C(F)(F)F)c2)c1` [compound 15], the “Inhibitory rate … (%)” value amounted to 94.5% (Drug concentration at 1 μg/mL) and 99.2% (Drug concentration at 10 μg/mL).
Consider `N#CC(C#N)=Cc1ccc(O)c(C(=O)Nc2cc(C(F)(F)F)cc(C(F)(F)F)c2)c1` [compound 16, N-[3,5-Bis(trifluoromethyl)phenyl]-5-(2,2-dicyanoethen-1-yl)-2-hydroxybenzamide], for which, for the setting “Drug concentration at 1 μg/mL”, the inhibition at 1 µg/mL is 42.7%. Further, for the setting “Drug concentration at 10 μg/mL”, the inhibition at 10 µg/mL turned out to be 99.4%.
Turning to `COC(=O)C(C#N)=Cc1ccc(O)c(C(=O)Nc2cc(C(F)(F)F)cc(C(F)(F)F)c2)c1` [compound 17, 3-({N-[3,5-Bis(trifluoromethyl)phenyl]carbamoyl}-4-hydroxyphenyl)-2-cyanoacrylic acid methyl ester], the “Inhibitory rate … (%)” value (Drug concentration at 1 μg/mL) amounted to 74.9% and the “Inhibitory rate … (%)” value (Drug concentration at 10 μg/mL) came to 99.1%.
For the molecule `N#CC(=Cc1ccc(O)c(C(=O)Nc2cc(C(F)(F)F)cc(C(F)(F)F)c2)c1)C(=O)O` [compound 18], the “Inhibitory rate … (%)” value was 59.7% (Drug concentration at 1 μg/mL) and 98.5% (Drug concentration at 10 μg/mL).
Regarding `C[Si](C)(C)C#Cc1ccc(O)c(C(=O)Nc2cc(C(F)(F)F)cc(C(F)(F)F)c2)c1` [compound 20, N-[3,5-bis(trifluoromethyl)phenyl]-2-hydroxy-5-[(trimethylsilyl)ethynyl]benzamide], where the note is “Drug concentration at 1 μg/mL”, the inhibition at 1 µg/mL was found to be 91.1%. The inhibition at 10 µg/mL (Drug concentration at 10 μg/mL) was 94.9%.
For `C#Cc1ccc(O)c(C(=O)Nc2cc(C(F)(F)F)cc(C(F)(F)F)c2)c1` [compound 21], the “Inhibitory rate … (%)” value is, setting by setting: (Drug concentration at 1 μg/mL) 53.3%; (Drug concentration at 10 μg/mL) 90.1%.
Regarding `O=C(Nc1cc(C(F)(F)F)cc(C(F)(F)F)c1)c1cc(CCc2ccccc2)ccc1O` [compound 24], the “Inhibitory rate … (%)” value is 92.3% (Drug concentration at 1 μg/mL) and 98.3% (Drug concentration at 10 μg/mL).
For `O=C(Nc1cc(C(F)(F)F)cc(C(F)(F)F)c1)c1cc(C(F)(F)F)ccc1O` [compound 25], the “Inhibitory rate … (%)” value (Drug concentration at 1 μg/mL) came to 96.4% and the “Inhibitory rate … (%)” value (Drug concentration at 10 μg/mL) was 99.6%.
Consider `O=C(Nc1cc(C(F)(F)F)cc(C(F)(F)F)c1)c1cc(C(F)(F)C(F)(F)F)ccc1O` [compound 26], for which the “Inhibitory rate … (%)” value is 93.3% (Drug concentration at 1 μg/mL) and 95.4% (Drug concentration at 10 μg/mL).
The matching figures for `O=C(Nc1cc(C(F)(F)F)cc(C(F)(F)F)c1)c1cc(-n2cccc2)ccc1O` [compound 27]: 93.8% and 97.9%.
As to `O=C(Nc1cc(C(F)(F)F)cc(C(F)(F)F)c1)c1cc(-c2cccs2)ccc1O` [compound 28], the “Inhibitory rate … (%)” value reads like this: (Drug concentration at 1 μg/mL) 79.5%; (Drug concentration at 10 μg/mL) 97.8%.
As to `Cc1nc(-c2ccc(O)c(C(=O)Nc3cc(C(F)(F)F)cc(C(F)(F)F)c3)c2)cs1` [compound 30, N-[3,5-Bis(trifluoromethyl)phenyl]-2-hydroxy-5-(2-methylthiazol-4-yl)benzamide], where the note is “Drug concentration at 1 μg/mL”, the inhibition at 1 µg/mL is 82.1%. Where the note is “Drug concentration at 10 μg/mL”, the inhibition at 10 µg/mL was 95.3%.
As for `O=C(Nc1cc(C(F)(F)F)cc(C(F)(F)F)c1)c1cc(-c2ccccn2)ccc1O` [compound 32, N-[3,5-Bis(trifluoromethyl)phenyl]-2-hydroxy-5-(pyridin-2-yl)benzamide], the inhibition at 1 µg/mL (Drug concentration at 1 μg/mL) was 90.4%. Also, under “Drug concentration at 10 μg/mL”, the inhibition at 10 µg/mL was found to be 99%.
Regarding `COc1ccc(O)c(C(=O)Nc2cc(C(F)(F)F)cc(C(F)(F)F)c2)c1` [compound 33], the “Inhibitory rate … (%)” value is 30.7% (Drug concentration at 1 μg/mL) and 97.0% (Drug concentration at 10 μg/mL).
`CC(C)C(=O)c1ccc(O)c(C(=O)Nc2cc(C(F)(F)F)cc(C(F)(F)F)c2)c1` [compound 34, N-[3,5-Bis(trifluoromethyl)phenyl]-2-hydroxy-5-isobutyrylbenzamide]: the inhibition at 1 µg/mL (Drug concentration at 1 μg/mL) is 90.7%. The inhibition at 10 µg/mL (Drug concentration at 10 μg/mL) was 98.7%.
Turning to `COC(=O)c1ccc(O)c(C(=O)Nc2cc(C(F)(F)F)cc(C(F)(F)F)c2)c1` [compound 35, N-[3,5-bis(trifluoromethyl)phenyl]-4-hydroxyisophthalamic acid methyl ester], the inhibition at 1 µg/mL (Drug concentration at 1 μg/mL) is 88.2%. Moreover, the inhibition at 10 µg/mL (Drug concentration at 10 μg/mL) was found to be 96.4%.
As to `O=C(Nc1cc(C(F)(F)F)cc(C(F)(F)F)c1)c1ccc(O)c(C(=O)Nc2cc(C(F)(F)F)cc(C(F)(F)F)c2)c1` [compound 37], the “Inhibitory rate … (%)” value (Drug concentration at 10 μg/mL) worked out at 94.5%.
Regarding `CN(C)C(=O)c1ccc(O)c(C(=O)Nc2cc(C(F)(F)F)cc(C(F)(F)F)c2)c1` [compound 38, N^3-[3,5-bis(trifluoromethyl)phenyl]-4-hydroxy-N^1,N^1-dimethylisophthalamide], the inhibition at 1 µg/mL (Drug concentration at 1 μg/mL) was 16%. Also, the inhibition at 10 µg/mL (Drug concentration at 10 μg/mL) turned out to be 87.1%.
For `O=C(Nc1cc(C(F)(F)F)cc(C(F)(F)F)c1)c1cc(C(=O)N2CCCCC2)ccc1O` [compound 39, N-[3,5-Bis(trifluoromethyl)phenyl]-2-hydroxy-5-(piperidine-1-carbonyl)benzamide], in that order: 23.7% and 82.2%.
On to `CN(C)S(=O)(=O)c1ccc(O)c(C(=O)Nc2cc(C(F)(F)F)cc(C(F)(F)F)c2)c1` [compound 41, N-[3,5-Bis(trifluoromethyl)phenyl]-5-dimethylsufamoyl-2-hydroxybenzamide], for which the “Inhibitory rate … (%)” value (Drug concentration at 1 μg/mL) amounted to 42.2% and the “Inhibitory rate … (%)” value (Drug concentration at 10 μg/mL) was found to be 95.9%.
For `O=C(Nc1cc(C(F)(F)F)cc(C(F)(F)F)c1)c1cc(S(=O)(=O)n2cccc2)ccc1O` [compound 42, N-[3,5-Bis(trifluoromethyl)phenyl]-2-hydroxy-5-(pyrrole-1-sulfonyl)benzamide], for the setting “Drug concentration at 1 μg/mL”, the inhibition at 1 µg/mL is 84.4%. Further, the inhibition at 10 µg/mL (Drug concentration at 10 μg/mL) was determined as 98.1%.
As to `CN(C)c1ccc(O)c(C(=O)Nc2cc(C(F)(F)F)cc(C(F)(F)F)c2)c1` [compound 44], the “Inhibitory rate … (%)” value (Drug concentration at 10 μg/mL) was 67.5%.
With `O=C(Nc1ccc(O)c(C(=O)Nc2cc(C(F)(F)F)cc(C(F)(F)F)c2)c1)c1ccccc1` [compound 45], for the setting “Drug concentration at 10 μg/mL”, the “Inhibitory rate … (%)” value is 63.4%.
As to `O=C(Nc1ccccc1)Nc1ccc(O)c(C(=O)Nc2cc(C(F)(F)F)cc(C(F)(F)F)c2)c1` [compound 46], the “Inhibitory rate … (%)” value was found to be 20.5% (Drug concentration at 1 μg/mL) and 88.4% (Drug concentration at 10 μg/mL).
`O=C(Nc1cc(C(F)(F)F)cc(C(F)(F)F)c1)c1cc(NC(=S)Nc2ccccc2)ccc1O` [compound 47]: the “Inhibitory rate … (%)” value by setting is: (Drug concentration at 1 μg/mL) 51.8%; (Drug concentration at 10 μg/mL) 97.2%.

The record behind these values is patent publication US20080234233A1, “MEDICAMENT FOR TREATMENT OF NEURODEGENERATIVE DISEASES” (INSTITUTE OF MEDICINAL MOLECULAR DESIGN INC., priority 2002, published 2008).
